Values after ≈ are worked out from the molar mass of the structure shown.
What was measured:
Assay in all cases: MIC determination by NCCLS dilution antimicrobial susceptibility test
Type in all cases: cell-based
[1] = test system: bacillus subtilis ATCC 6633; details: ATCC6633
Excerpt: (§1) The antibacterial effects of HKI10311129 can be determined by applying methods well-known to the experts, such as the agar plate diffusion test and the determination of the minimal inhibitory concentration (MIC).
(§2) The antimicrobial characteristics have been tested according to the US laboratory standards—National Committee for Clinical Laboratory Standards, Methods for dilution anti-microbial susceptibility tests for bacteria that grow aerobically, Approved Standard M7-A. NCCLS, Villanova, Pa., 1991).

[2] = test system: staphylococcus aureus 134/93 (MRSA); details: multiresistant
Excerpt: as §1, §2

[3] = test system: enterococcus faecalis 1528 (VRE); details: vanA-type vancomycin resistance
Excerpt: as §1, §2

[4] = test system: staphylococcus aureus SG 511; details: SG511
Excerpt: as §1, §2

MIC [1]: < 0.05 µg/mL
MIC [2]: 0.8 µg/mL (≈ 0.718 µM)
MIC [3]: 0.4 µg/mL (≈ 0.359 µM)
MIC [4]: 0.8 µg/mL (≈ 0.718 µM)
Compound: COC1=CC(=O)c2c(cc3c(c2O)C(=O)C2(OC4CCC(OC5CCC(O)C(C)O5)C(C)O4)C(=O)C(C(N)=O)=C(O)C(OC4CCC(OC5CCC(OC6CCC(OC7CCC(O)C(C)O7)C(C)O6)C(C)O5)C(C)O4)C2C3)C1=O (stereo not shown) [HKI10311129]

From US7557091B2, “HKI10311129, novel antibiotic, method for producing the same and the use thereof” (Leibniz-Institut fuer Naturstoff-Forschung und …, priority 2004, dated 2009)
